Data set [1] can be described thus: Critical wavelength (λcrit), approximate in-house measurement. The class given is physicochemical. The source says:
As the precise test for critical wavelength was unable to be replicated exactly by the inventors due to the need for specialist equipment and a specific calibration of the spectrophotometer, these values are only approximate to a degree. […] This represents a highly useful result and so, compounds based around this benzoyl substitution pattern shown, are especially preferred.

Data set [2] can be described thus: UV absorption properties (λmax, molar extinction coefficient ε, efficiency E 1%, 1 cm). To be noted: for shoulder in the λmax column: Tables 5, 10, 13B. The class given is physicochemical.
The mark [3] stands for this setting: Table 13B, miscellaneous compounds.
[4] abbreviates: Table 13B, values in order of the λmax values.
Where [5] appears, read: Table 13B, values in order of the λmax values, in M-1 cm-1.
Where [6] appears, read: Table 4, N-aryl enamines with isocyanates.
Where [7] appears, read: Table 3, compounds from isocyanates or isothiocyanates.

`CCCCC(CC)CNc1ccc(C(=O)C2=CN(C(C)(C)C)CCC2(C)C)cc1` (stereo not shown) yielded a λcrit in data set [1] (Table 13B) of 362 nm. This compound showed a λmax in data set [2] (setting [3]) of 318 nm. Moreover, in data set [2] (setting [4]), the “E (1%, 1 cm)” value is listed as 551. This compound also had a ε in data set [2] (setting [5]) of 21936.
The matching figures for `Cc1cc(-c2ccc(N3C=C(C(=O)C(F)(F)F)C(C)(C)CC3)c(C)c2)ccc1N1C=C(C(=O)C(F)(F)F)C(C)(C)CC1`: 354 nm, 331 nm, 1207 and 71432.
Turning to `CC1(C)CCN(c2ccc(C(C)(C)C)cc2)C=C1C(=O)Nc1ccccc1` [drawing 70], the λcrit in data set [1] (Table 4) turned out to be 342 nm. Moreover, in data set [2] (Table 4), the “Ε (1%, 1 cm)” value is reported as 987. Moreover, in data set [2] (setting [6]), the λmax was found to be 324 nm. The compound further displayed a ε in data set [2] (Table 4, in M-1 cm-1) of 35759.
In the case of `CC1(C)CCN(c2cccc3ccccc23)C=C1C(=O)C(F)(F)F` [drawing 143], the λcrit in data set [1] (Table 9) is recorded as 348 nm. Further, in data set [2] (Table 9), the “E (1%, 1 cm)” value amounted to 985. In data set [2] (Table 9, C3-trifluoroacetylated N-aryl enamines), this compound gave a λmax of 325 nm. In data set [2] (Table 9, in M-1 cm-1), the ε worked out at 32790.
Regarding `Cc1ccc(N2C=C(C(=O)Nc3ccc(C)c(NC(=O)C4=CN(C(C)(C)C)CCC4(C)C)c3)C(C)(C)CC2)cc1` [drawing 67], in data set [1] (Table 4), the λcrit came to 340 nm. Further, the “Ε (1%, 1 cm)” value in data set [2] (Table 4) turned out to be 954. Moreover, the λmax in data set [2] (setting [6]) was 314 nm. This compound came in with a ε in data set [2] (Table 4, in M-1 cm-1) of 51743.
Consider `CC(C)(C)Oc1ccc(C(=O)C2=CN(C(C)(C)C)CCC2(C)C)cc1` [drawing 96], for which the λcrit in data set [1] (Table 6B) is recorded as 344 nm. Moreover, the “E (1%, 1 cm)” value in data set [2] (Table 6B) is reported as 949. This compound registered a λmax in data set [2] (Table 6B, N-tert-butyl compounds) of 317 nm. In addition, the ε in data set [2] (Table 6B, in M-1 cm-1) worked out at 32556.
With `C=CC(=O)C1=CN(c2ccc(OC)cc2)CCC1(C)C` [drawing 128], the λcrit in data set [1] (Table 8a) was determined as 379 nm. Also, in data set [2] (Table 8a), the “E (1%, 1 cm)” value came out at 794 and the ε was 21500 M⁻¹ cm⁻¹. Besides, the λmax in data set [2] (Table 8a, N-phenyl compounds) came to 350 nm.
`CC1(C)CCN(C(C)(C)C)C=C1C(=O)C1=CN(C(C)(C)C)CCC1(C)C` [drawing 73] registered a λcrit in data set [1] (Table 5) of 351 nm. The compound also displayed a λmax in data set [2] (Table 5, acylation of N-t-Bu enamine) of 305 nm. Moreover, the “Ε (1%, 1 cm)” value in data set [2] (Table 5, values in order of the λmax values) amounted to 456. This compound also returned a ε in data set [2] (Table 5, values in order of the λmax values, in M-1 cm-1) of 16425. Besides, the “shoulder in the λmax column” value in data set [2] was determined as 330 nm.
`CC1(C)CCN(C(C)(C)C)C=C1C(=O)NCCCCCCNC(=O)C1=CN(C(C)(C)C)CCC1(C)C` [drawing 59] yielded a λcrit in data set [1] (Table 3) of 314 nm. Moreover, the “Ε (1%, 1 cm)” value in data set [2] (Table 3) is recorded as 619. In addition, in data set [2] (setting [7]), the λmax is reported as 289 nm. This compound also registered a ε in data set [2] (Table 3, in M-1 cm-1) of 31072.
`C=CC(=O)C1=CN(c2ccccc2)CCC1(C)C` [drawing 123] had a λcrit in data set [1] (Table 8a) of 373 nm. Also, in data set [2] (Table 8a), the “E (1%, 1 cm)” value stood at 874 and the ε was 21000 M⁻¹ cm⁻¹. For the same compound, the λmax in data set [2] (Table 8a, N-phenyl compounds) stood at 346 nm.
For `CC1(C)CCN(c2ccccc2)C=C1C(=O)c1ccc(Br)cc1` [drawing 124] the same measures were 366 nm, 629, 23300 M⁻¹ cm⁻¹ and 338 nm.
Take `Cc1nn(C)c(N2C=CC(C)(C)C=C2)c1C(=O)C(F)(F)F` [drawing 153]: in data set [1] (Table 10), the λcrit is listed as 363 nm. The “E (1%, 1 cm)” value in data set [2] (Table 10) was 335. The compound also showed a λmax in data set [2] (Table 10, bis and mono enamine compounds) of 253 nm. In addition, the ε in data set [2] (Table 10, in M-1 cm-1) amounted to 10016. In addition, the “shoulder in the λmax column” value in data set [2] stood at 315 nm.
In data set [1] (Table 3), `CC1(C)CCN(C(C)(C)C)C=C1C(=O)Nc1cccc(NC(=O)C2=CN(C(C)(C)C)CCC2(C)C)c1` [drawing 66] returned a λcrit of 328 nm. Also, the “Ε (1%, 1 cm)” value in data set [2] (Table 3) came out at 1129. In data set [2] (setting [7]), this compound registered a λmax of 313 nm. Also, the ε in data set [2] (Table 3, in M-1 cm-1) is 55779.
The matching figures for `CC1(C)CCN(C(C)(C)C)C=C1C(=O)Nc1ccc(Cc2ccc(NC(=O)C3=CN(C(C)(C)C)CCC3(C)C)cc2)cc1` [drawing 63]: 328 nm, 1105, 310 nm and 64589.

(Values after patent US10519111B2, “UV absorbing compounds, compositions comprising same and uses thereof” (CORAL SUNSCREEN PTY LTD, priority 2013, dated 2019).)
